Consider one molecule from ChEMBL document CHEMBL5550160, “Leveraging a rationally designed veliparib-based anilide eliciting anti-leukemic effects for the design of pH-responsive polymer nanoformulation” (Eur J Med Chem, 2024).

For assay [1], the system named is HL-60. Nature of the assay: Downregulation of PARP-1 protein expression in human HL-60 cells by Western blot analysis. It is filed as functional, cell-based. (Immunoblotting shows a protein as a band on a membrane.)
The target of assay [2] is Histone deacetylase 5 (Homo sapiens) (UniProt Q9UQL6). Briefly: Inhibition of HDAC5 (unknown origin) assessed as residual activity at 1.52 x 10^-9M (reference value: 100%). Conditions: dose 1.52 10^-9M.
Assay [3] concerns the target T1, Polyamine deacetylase HDAC10 (Homo sapiens) (UniProt Q969S8).
T1 sequence (whole entry): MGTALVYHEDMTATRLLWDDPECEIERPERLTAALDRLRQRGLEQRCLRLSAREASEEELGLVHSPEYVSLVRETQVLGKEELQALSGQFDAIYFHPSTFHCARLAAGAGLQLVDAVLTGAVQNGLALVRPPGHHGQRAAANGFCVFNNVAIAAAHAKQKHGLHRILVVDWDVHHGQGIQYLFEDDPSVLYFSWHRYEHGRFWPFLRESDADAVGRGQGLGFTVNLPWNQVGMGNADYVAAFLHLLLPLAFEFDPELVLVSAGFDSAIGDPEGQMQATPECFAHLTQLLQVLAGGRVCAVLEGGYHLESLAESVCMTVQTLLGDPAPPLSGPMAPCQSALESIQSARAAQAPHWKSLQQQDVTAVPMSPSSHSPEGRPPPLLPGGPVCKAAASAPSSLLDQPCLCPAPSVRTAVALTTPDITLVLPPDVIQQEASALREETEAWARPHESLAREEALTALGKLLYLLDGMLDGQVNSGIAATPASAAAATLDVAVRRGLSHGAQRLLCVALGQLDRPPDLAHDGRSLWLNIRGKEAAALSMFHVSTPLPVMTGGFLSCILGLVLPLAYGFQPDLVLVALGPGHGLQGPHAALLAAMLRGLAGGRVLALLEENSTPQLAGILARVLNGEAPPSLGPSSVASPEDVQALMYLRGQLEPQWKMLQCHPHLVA
Nature of the assay: Inhibition of HDAC10 (unknown origin) assessed as residual activity at 1.23 x 10^-7M (reference value: 101.54%). As to conditions: dose 1.23 10^-7M.

In assay [4] the target is Histone deacetylase 9 (Homo sapiens) (UniProt Q9UKV0). Briefly: Inhibition of HDAC9 (unknown origin) assessed as residual activity at 5.08 x 10^-10M (reference value: 97.55%). As to conditions: dose 5.08 10^-10M.
The target in assay [5] is Histone deacetylase 4 (Homo sapiens) (UniProt P56524). Nature of the assay: Inhibition of HDAC4 (unknown origin) assessed as residual activity at 3.70 x 10^-7M (reference value: 98.90%). Conditions: dose 3.7 10^-7M.
Assay [6] has as its target Histone deacetylase 5 (Homo sapiens) (UniProt Q9UQL6). Briefly: Inhibition of HDAC5 (unknown origin) assessed as residual activity at 1.1 x 10^-6M (reference value: 100%). As to conditions: dose 1.1 10^-6M.
In assay [7] the target is Class 1 histone deacetylase (Homo sapiens) (UniProt Q13547+O15379+Q92769+Q9BY41). Nature of the assay: Inhibition of class 1 HDAC in human HL-60 cells assessed as upregulation of acetyl histone H3 protein expression 0.5 to 1 times IC50 by Western blot analysis. It is filed as cell-based.
In assay [8] the test system is HL-60. Briefly: Downregulation of HDAC1 protein expression in human HL-60 cells by Western blot analysis. It is filed as functional, cell-based. Conditions: dose 0.2-5 µM.
Assay [9] has as its target T2, Histone deacetylase 7 (Homo sapiens) (UniProt Q8WUI4).
T2 sequence (whole entry): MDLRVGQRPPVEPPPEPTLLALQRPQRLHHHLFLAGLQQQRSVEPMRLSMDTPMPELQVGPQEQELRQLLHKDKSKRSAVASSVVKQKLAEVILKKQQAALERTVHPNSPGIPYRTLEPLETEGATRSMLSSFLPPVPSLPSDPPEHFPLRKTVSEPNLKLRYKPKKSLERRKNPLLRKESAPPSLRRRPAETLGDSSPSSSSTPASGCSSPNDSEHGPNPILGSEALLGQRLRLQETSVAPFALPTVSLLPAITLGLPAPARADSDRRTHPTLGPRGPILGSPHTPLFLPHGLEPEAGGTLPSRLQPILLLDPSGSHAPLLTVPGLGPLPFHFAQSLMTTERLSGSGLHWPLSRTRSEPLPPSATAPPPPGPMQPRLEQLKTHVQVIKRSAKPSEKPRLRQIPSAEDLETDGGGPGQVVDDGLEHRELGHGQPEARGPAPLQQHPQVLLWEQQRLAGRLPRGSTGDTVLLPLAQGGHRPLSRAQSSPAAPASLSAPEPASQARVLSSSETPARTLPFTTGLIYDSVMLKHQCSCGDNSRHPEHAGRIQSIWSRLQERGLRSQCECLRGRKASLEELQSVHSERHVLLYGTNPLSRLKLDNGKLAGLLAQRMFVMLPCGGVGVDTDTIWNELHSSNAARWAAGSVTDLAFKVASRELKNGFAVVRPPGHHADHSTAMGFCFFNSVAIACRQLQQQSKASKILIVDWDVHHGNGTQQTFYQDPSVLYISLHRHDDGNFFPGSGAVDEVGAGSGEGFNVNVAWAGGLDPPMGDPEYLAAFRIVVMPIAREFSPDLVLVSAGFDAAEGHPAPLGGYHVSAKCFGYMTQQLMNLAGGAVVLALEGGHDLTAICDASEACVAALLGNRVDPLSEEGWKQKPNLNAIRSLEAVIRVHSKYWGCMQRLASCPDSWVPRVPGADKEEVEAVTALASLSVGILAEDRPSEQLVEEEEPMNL
Nature of the assay: Inhibition of HDAC7 (unknown origin) assessed as residual activity at 5.08 x 10^-10M (reference value: 102.66%). As to conditions: dose 5.08 10^-10M.

Assay [10] deals with Histone deacetylase 4 (Homo sapiens) (UniProt P56524). Nature of the assay: Inhibition of HDAC4 (unknown origin) assessed as residual activity at 4.57 x 10^-9M (reference value: 98.90%). As to conditions: dose 4.57 10^-9M.
In assay [11] the target is T3, Histone deacetylase 2 (Homo sapiens, UniProt Q92769). Briefly: Inhibition of HDAC2 (unknown origin) assessed as residual activity at 1.52 x 10^-9M (reference value: 99.81%). As to conditions: dose 1.52 10^-9M.
The test system of assay [12] is HL-60. Briefly: cells. Conditions: Homo sapiens.
Description: Antiproliferative activity against human HL-60 cells assessed as inhibition of cell growth by MTT assay
The next assay deals with HH. Briefly: cells. It is filed as functional, cell-based. As to conditions: Homo sapiens.
The target in another assay is Histone deacetylase 1 (Homo sapiens, UniProt Q13547). Briefly: Inhibition of HDAC1 (unknown origin) using p53 residues 379 to 382 [RHKK(Ac)] as fluorogenic substrate assessed as residual activity at 1.52 x 10^-9M (reference value: 98.06%). Conditions: dose 1.52 10^-9M.
For assay [13], the target named is Histone deacetylase 5 (Homo sapiens) (UniProt Q9UQL6). Nature of the assay: Inhibition of HDAC5 (unknown origin) assessed as residual activity at 3.70 x 10^-7M (reference value: 100%). Conditions: dose 3.7 10^-7M.
Assay [14] has as its target T3, Histone deacetylase 2. Nature of the assay: Inhibition of HDAC2 (unknown origin) assessed as residual activity at 5.08 x 10^-10M (reference value: 99.81%). As to conditions: dose 5.08 10^-10M.
For assay [15], the target named is T2, Histone deacetylase 7 (Homo sapiens). Nature of the assay: Inhibition of HDAC7 (unknown origin) assessed as residual activity at 1.23 x 10^-7M (reference value: 102.66%). As to conditions: dose 1.23 10^-7M.
For assay [16], the target named is T1, Polyamine deacetylase HDAC10 (Homo sapiens). Briefly: Inhibition of HDAC10 (unknown origin) assessed as residual activity at 1.37 x 10^-8M (reference value: 101.54%). As to conditions: dose 1.37 10^-8M.
In assay [17] the target is T2, Histone deacetylase 7 (Homo sapiens). Nature of the assay: Inhibition of HDAC7 (unknown origin) assessed as residual activity at 3.70 x 10^-7M (reference value: 102.66%). As to conditions: dose 3.7 10^-7M.

Each structure is given as a SMILES string. Active and inactive are the calls of the source. No cut-off for these calls is given here.

Chain of Histone deacetylase 5 (Homo sapiens) (Q9UQL6 whole entry): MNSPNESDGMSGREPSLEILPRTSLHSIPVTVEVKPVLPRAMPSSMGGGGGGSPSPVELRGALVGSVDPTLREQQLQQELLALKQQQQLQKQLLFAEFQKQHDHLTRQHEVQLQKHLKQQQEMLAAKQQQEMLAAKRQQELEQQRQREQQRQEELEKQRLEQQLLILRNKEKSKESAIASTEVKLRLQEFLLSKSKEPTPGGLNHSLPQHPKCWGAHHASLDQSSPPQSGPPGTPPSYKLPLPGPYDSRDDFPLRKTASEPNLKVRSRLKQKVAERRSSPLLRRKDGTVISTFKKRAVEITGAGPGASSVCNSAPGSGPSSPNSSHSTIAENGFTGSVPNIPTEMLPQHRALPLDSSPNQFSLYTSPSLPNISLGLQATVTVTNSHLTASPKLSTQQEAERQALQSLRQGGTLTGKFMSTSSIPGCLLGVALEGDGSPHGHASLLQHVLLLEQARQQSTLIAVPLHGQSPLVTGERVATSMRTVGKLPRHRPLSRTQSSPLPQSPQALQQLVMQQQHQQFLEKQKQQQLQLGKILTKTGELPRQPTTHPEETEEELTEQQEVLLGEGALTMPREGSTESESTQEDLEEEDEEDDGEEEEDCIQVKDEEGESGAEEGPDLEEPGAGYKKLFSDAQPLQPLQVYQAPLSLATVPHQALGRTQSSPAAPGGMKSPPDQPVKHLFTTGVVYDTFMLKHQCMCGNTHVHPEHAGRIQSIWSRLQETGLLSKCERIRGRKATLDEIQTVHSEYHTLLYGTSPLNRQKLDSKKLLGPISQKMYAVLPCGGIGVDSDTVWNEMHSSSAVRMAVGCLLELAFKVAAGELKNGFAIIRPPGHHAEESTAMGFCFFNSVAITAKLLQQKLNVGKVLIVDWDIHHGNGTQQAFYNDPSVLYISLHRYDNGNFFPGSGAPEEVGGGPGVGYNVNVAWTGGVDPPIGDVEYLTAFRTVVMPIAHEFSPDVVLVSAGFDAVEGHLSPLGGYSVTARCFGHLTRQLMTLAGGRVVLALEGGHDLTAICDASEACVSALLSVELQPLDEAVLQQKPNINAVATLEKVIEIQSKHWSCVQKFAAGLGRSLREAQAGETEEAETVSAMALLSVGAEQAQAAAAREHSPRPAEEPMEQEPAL
Chain of Histone deacetylase 4 (Homo sapiens) (P56524 whole entry): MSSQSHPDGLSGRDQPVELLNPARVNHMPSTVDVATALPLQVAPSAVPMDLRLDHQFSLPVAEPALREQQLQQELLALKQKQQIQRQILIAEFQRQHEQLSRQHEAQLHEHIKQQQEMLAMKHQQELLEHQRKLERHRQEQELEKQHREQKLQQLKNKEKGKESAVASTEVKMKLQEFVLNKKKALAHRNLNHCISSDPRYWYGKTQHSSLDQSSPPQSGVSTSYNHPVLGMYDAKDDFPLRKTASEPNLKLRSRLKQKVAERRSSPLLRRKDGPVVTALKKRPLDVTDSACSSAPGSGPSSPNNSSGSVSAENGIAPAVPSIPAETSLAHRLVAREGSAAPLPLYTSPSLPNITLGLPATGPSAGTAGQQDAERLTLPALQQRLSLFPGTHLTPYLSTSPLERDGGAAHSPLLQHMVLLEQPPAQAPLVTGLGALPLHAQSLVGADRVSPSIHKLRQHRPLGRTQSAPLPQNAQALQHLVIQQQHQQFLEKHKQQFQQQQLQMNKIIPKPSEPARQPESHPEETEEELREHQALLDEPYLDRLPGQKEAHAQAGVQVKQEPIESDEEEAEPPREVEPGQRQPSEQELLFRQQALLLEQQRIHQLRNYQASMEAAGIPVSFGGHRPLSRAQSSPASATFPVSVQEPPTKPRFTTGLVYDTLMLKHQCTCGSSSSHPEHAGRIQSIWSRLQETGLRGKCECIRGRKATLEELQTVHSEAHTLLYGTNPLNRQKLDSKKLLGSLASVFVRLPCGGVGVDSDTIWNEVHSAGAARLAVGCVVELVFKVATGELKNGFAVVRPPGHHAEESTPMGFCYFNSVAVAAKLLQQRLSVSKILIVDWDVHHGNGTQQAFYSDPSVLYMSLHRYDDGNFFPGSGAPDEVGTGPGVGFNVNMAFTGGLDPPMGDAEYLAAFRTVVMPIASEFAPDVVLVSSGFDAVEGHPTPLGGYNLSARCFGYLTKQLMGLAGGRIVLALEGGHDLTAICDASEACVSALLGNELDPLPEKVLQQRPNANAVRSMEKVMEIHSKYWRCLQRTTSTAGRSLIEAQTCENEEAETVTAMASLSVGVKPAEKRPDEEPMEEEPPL
T3 sequence (Q92769 whole entry): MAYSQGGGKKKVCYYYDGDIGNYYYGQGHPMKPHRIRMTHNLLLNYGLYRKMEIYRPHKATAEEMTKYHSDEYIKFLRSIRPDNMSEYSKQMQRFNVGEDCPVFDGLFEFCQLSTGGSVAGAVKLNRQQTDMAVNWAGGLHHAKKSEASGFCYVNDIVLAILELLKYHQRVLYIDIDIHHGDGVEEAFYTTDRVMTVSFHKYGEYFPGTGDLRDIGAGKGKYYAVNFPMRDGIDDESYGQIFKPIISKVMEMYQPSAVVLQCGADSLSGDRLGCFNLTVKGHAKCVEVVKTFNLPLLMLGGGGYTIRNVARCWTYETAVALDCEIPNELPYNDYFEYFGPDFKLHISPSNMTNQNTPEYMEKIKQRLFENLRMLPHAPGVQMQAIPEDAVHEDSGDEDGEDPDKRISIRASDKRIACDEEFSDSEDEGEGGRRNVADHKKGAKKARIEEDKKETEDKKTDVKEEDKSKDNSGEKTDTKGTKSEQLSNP
Chain of Histone deacetylase 9 (Homo sapiens) (Q9UKV0 whole entry): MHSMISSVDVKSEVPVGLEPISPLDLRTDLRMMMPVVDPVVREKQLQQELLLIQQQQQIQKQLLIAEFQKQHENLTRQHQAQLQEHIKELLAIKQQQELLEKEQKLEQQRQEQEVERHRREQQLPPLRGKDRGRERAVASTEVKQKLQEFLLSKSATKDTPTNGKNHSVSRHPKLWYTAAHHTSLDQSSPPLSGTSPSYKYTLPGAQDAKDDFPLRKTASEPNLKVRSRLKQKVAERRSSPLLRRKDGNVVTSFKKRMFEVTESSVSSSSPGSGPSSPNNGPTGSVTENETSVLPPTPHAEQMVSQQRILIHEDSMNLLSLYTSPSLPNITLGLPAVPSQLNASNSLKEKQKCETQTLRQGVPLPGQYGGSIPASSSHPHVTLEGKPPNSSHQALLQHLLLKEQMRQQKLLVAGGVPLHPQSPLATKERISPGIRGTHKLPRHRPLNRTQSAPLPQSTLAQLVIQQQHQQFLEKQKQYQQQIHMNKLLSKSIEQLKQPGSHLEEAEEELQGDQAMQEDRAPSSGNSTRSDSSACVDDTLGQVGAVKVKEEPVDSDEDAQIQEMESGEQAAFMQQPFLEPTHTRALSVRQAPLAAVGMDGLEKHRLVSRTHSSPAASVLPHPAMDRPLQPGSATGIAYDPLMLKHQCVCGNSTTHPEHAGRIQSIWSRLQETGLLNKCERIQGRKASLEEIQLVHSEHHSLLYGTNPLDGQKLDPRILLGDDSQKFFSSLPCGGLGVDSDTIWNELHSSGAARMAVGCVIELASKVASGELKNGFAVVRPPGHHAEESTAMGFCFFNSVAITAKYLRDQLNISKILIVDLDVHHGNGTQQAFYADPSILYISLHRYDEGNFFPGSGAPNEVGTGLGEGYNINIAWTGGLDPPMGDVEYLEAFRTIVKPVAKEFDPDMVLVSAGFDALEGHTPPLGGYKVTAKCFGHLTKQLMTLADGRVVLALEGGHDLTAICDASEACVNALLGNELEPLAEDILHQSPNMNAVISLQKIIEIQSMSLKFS
Chain of Histone deacetylase 1 (Q13547 whole entry, the tested form may be a part): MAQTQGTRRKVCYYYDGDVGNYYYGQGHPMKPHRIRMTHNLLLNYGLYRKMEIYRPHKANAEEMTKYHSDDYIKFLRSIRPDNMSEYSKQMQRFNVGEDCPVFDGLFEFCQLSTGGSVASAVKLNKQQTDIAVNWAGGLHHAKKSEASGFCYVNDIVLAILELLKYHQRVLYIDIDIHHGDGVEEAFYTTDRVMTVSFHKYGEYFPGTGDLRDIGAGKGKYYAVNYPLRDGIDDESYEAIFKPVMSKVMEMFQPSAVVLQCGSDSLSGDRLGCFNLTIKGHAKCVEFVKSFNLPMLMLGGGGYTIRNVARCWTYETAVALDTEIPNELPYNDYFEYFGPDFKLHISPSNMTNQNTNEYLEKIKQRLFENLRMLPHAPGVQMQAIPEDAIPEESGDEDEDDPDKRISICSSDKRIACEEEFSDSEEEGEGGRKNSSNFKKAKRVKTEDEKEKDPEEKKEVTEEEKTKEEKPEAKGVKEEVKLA
Description for HH: Antiproliferative activity against human HH cells assessed as inhibition of cell growth by MTT assay

Turning to `NC(=O)c1cccc2[nH]c(-c3ccc(NCc4ccc(C(=O)Nc5ccccc5N)cc4)cc3)nc12`, the outcome in the assay on HL-60 [1] was Active. Moreover, the Activity in assay [2] was 80.1%; in [3], 101%; in assay [4], 93.7%; in [5], 108%; in assay [6], 93%; in the assay with HL-60 [8] it was “Dose-Dependent Effect”. In addition, the Activity in assay [9] came to 93.4%; in assay [10], 95.9%; on Histone deacetylase 2 [11], 98.2%; at Histone deacetylase 1, 95.5%; in assay [13], 77.6%; on Histone deacetylase 2 [14] it was 98.2%. The Activity is 89.1% in assay [15], 97.7% in assay [16] and 91.9% in assay [17]. For the same molecule, the inhibition entry in assay [7] is “Active”. In addition, the IC50 is 690 nM with HL-60 [12] and 1010 nM with HH.

As a reminder, the IC50 is the concentration at which inhibition is half-maximal.
